According to patent US9945845B2, “Methods of screening using amphibians” (priority 2009, dated 2018):
Entries after “also recorded” stand apart in the source; their conditions may differ.

Experiments:
[1] = test system: VEGFA-induced dermal neovascularization; test: Matrigel plug implantation assay (VEGFA-induced angiogenesis and lymphatic vessel enlargement); type: in vivo, mouse; conditions: mice, 3 mg/kg/day orally, 6 days
Description: The mouse studies were conducted under protocols approved by the Veterinary Office of the Canton of Zurich, Switzerland (permit #123/2005). Nine week-old female wild-type FVB mice (Charles River) were used for the experiments (n=6 per group). Prior to Matrigel implantation, the mice were anesthetized by intraperitoneal injection of 200 μl of Dormitor (20 μg/ml medetomidine; Pfizer) and Narketan 10 (8 mg/ml ketamine; Vétoquinol). The left hip of the animals were shaved and subsequently Matrigel was implanted by intradermal injection of 100 μl of unpolymerized growth factor-reduced Matrigel (BD Biosciences) containing 0.5 mg/ml recombinant human VEGFA (#0081109; National Cancer Institute, USA). The mice were treated orally with either 200 μl PEG-400 (Fluka; pH adjusted to 5.2; control group) or with 200 μl PEG-400 containing […] naphthyridine (3 mg/kg/day). Another control group of mice received Matrigel without VEGFA and was treated with 200 μl PEG-400. The treatment was given once daily for six days. Weight and appearance of animals was monitored daily. On the 7th day, the Matrigel implants were removed from the euthanized mice for immunocytochemical examination. The Matrigel implants were frozen in Tissue-Tek O.C.T. compound (Sakura Finetek), sectioned, and processed as described previously (Kajiya et al., 2005). In brief, 6-μm frozen sections were fixed in −20° C. acetone for two minutes and in cold 80% methanol for five minutes, followed by incubation with antibodies against the lymphatic-specific marker LYVE1 (1:1,000; Millipore) and against the pan-endothelial marker […] (anti-mouse; 1:50; BD Biosciences). Corresponding secondary antibodies were labeled with Alexa 488 or Alexa 594 (Invitrogen). Nuclei were counterstained with 20 μg/ml Hoechst 33342 (Invitrogen). Sections were examined under an Axioskop 2 mot plus microscope and digital images were taken using an AxioCam MRc camera (Carl Zeiss). Three pictures each were taken of vascularized areas around the Matrigel implants (maximal distance from the implant: 500 μm). The vessel density, average vessel size and the average tissue area occupied by vessels were determined in CD31/LYVE1 stained sections using the IPLab software (BD Biosciences) as described (Kajiya et al., 2005).
The adenosine A1 receptor antagonist naphthyridine was identified as a novel inhibitor of lymphatic and blood vessel formation in Xenopus tadpoles and in vitro cellular assays, where it acted anti-mitogenic and impaired endothelial tube formation. […] It can be concluded that the ability of naphthyridine to inhibit lymph and blood vessel angiogenesis is conserved between Xenopus and mammals.

LEC = LEC cell proliferation assay; type: cell-based, human; conditions: Homo sapiens, 48 h, 10 μM in 0.1% DMSO, 48 hours; read-out: LEC proliferation
Summary of the method: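 HUVEC and LEC in EBM with 20% FBS, hydrocortisone and dibutyryl-cAMP were treated with compound at 10 μM in 0.1% DMSO for 48 hours. Viable cells read by fluorescence, in five replicates.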

## Oc1cc(-c2ccccc2)nc2nc(Cl)ccc12 [7-Chloro-4-hydroxy-2-phenyl-1,8-naphthyridine]
[1]
  density of lymphatic vessels: unchanged
  number of VEGFA-induced blood vessels: 36.49±1.49
  tissue area covered by lymphatic vessels surrounding VEGFA containing Matrigels: 0.89±0.18%
[1]; 3 mg/kg/day
  lymphatic vessel enlargement: potently inhibited; also recorded: reduction
  tissue area covered by blood vessels: reduction; also recorded: reduced
LEC
  activity at 10 µM: 42 to 48%
